# Experimental data as given in patent US20260274819A1, “ULK1 INHIBITOR, PREPARATION METHOD THEREFOR AND USE THEREOF” (DOVETREE MEDICINES UNUS, INC., priority 2023, published 2026).
# Target: T1, ULK1 (Homo sapiens, UniProt O75385)
# T1 construct: purchased Promega V3521
# T1 sequence (O75385 1-649 limits assumed): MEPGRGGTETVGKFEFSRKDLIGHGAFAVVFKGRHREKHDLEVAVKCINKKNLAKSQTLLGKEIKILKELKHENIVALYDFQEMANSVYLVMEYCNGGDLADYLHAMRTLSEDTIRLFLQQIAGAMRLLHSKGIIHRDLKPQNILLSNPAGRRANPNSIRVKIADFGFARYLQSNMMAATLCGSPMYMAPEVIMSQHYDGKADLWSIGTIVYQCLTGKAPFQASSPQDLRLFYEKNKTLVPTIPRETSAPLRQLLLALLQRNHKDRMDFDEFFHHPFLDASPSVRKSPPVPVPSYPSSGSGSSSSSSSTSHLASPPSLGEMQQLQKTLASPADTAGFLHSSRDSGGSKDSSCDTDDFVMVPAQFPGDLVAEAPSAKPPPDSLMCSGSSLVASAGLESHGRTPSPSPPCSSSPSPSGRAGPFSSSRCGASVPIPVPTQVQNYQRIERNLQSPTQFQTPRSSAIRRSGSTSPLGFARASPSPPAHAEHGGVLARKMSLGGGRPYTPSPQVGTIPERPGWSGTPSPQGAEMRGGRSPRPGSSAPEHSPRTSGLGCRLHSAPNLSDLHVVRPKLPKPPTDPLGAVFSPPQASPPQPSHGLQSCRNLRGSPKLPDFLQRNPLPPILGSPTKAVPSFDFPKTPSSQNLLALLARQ
# Assay: Inhibition of ULK1 protein activity (ADP-Glo method)
# Assay type: biochemical
# Conditions: ULK1 enzyme, ATP and MBP substrate, 60 min room temperature
# Protocol: In this experiment, the inhibitory effect of a compound on the phosphorylation function of ULK1 was detected by ADP-Glo method. The inhibitory effect of the compound of the present disclosure on the ULK1 target was evaluated based on IC50.
# Compound formulation: Using an ECHO (Beckman, ECHO650), the compound was serially diluted 3-fold in DMSO in a 384-well plate (PE, 6007290). A total of 10 concentration points were set, with the maximum concentration of the compound being 10 μM, and 50 nL per well. Positive control wells and negative control wells were added with 50 nL DMSO, respectively.
# Reaction process: A 32 nM of ULK1 (Promega, V3521) solution was formulated, and 2.5 μL/well was transferred to the compound test wells and the negative control wells (NC). 2.5 μL/well of 1× Assay buffer was added to the positive control wells (PC). A mixed solution of 100 μM of ATP and 1.86 μM of MBP was formulated, and 2.5 μL/well was transferred to the reaction plate. After centrifugation, the reaction was initiated and incubated at room temperature for 60 min. After the reaction was completed, 5 μL/well of ADP-Glo Reagent (Promega, V9102) was added to the reaction plate. After centrifugation, the reaction was incubated at room temperature for 40 minutes. Finally, 10 μL/well of Kinase Detection Buffer was added, followed by centrifugation and incubation at room temperature for 30 min. The chemiluminescence value was read using Envision (PE, Envision2105).
# Assay buffer: a reaction buffer; and Kinase Detection buffer: a detection buffer, both were taken from the ADP-Glodetection kit, purchased from Promega, model V9102. 3. Data analysis
# The inhibition ratio of a compound on ULK1 activity was calculated using the following formula:
# Inhibition ratio=(sample signal value−negative control signal value)/(positive control signal value−negative control signal value)×100%. The dose-effect curve was fitted using the log(inhibitor) vs. response -Variable slope of the analysis software GraphPad Prism 8, thereby affording the IC50 value of each compound for enzyme activity.
row,Structure (SMILES),IC50 [µM]
1,CN1CCN(c2ccc(Nc3ncc(C(F)(F)F)c(OC4CCN(C)C(=O)C4)n3)c(C3CC3)c2)CC1 (stereo not shown) [Example 17],< 0.1
2,CN1CCC(n2cc(-c3nc(Nc4ccc(N5CCN(C)CC5)cc4C4CC4)ncc3C(F)(F)F)cn2)CC1 [Example 33],< 0.1
3,CN1CCN(c2ccc(Nc3ncc(C(F)(F)F)c(NC4CCC(N5CCCC5=O)CC4)n3)c(C3CC3)c2)CC1 (stereo not shown) [Example 52],< 0.1
4,Cc1ccn(C2CN(c3nc(Nc4ccc(N5CCN(C)CC5)cc4C4CC4)ncc3C(F)(F)F)C2)n1 [Example 2],0.1 to 1
5,CN1CCN(c2nc(Nc3cccc(CN4CCOCC4)c3)ncc2C(F)(F)F)CC1=O [Example 16],> 1
6,CN1CCN(c2nc(Nc3cccc(Nc4ccc(N)cc4)c3)ncc2C(F)(F)F)CC1=O [Example 21],0.1 to 1
7,CN1CCN(c2nc(Nc3cccc(NC(=O)N4CCCC4)c3)ncc2C(F)(F)F)CC1=O [Example 22],> 1
8,CN1CC[C@@H](Oc2ccc(Nc3ncc(C(F)(F)F)c(OCCCN4CCCCC4=O)n3)c(C3CC3)c2)C1 [Example 46],< 0.1
9,CN1CCN(c2ccc(Nc3ncc(C(F)(F)F)c(CCN4CCCCC4=O)n3)c(C3CC3)c2)CC1 [Example 28],0.1 to 1
10,CN1CCN(c2ccc(Nc3ncc(C(F)(F)F)c(OCCCC(=O)N4CCOCC4)n3)c(C3CC3)c2)CC1 [Example 47],< 0.1
11,CN1CCN(c2ccc(Nc3ncc(C(F)(F)F)c(NC4CCN(C)C(=O)C4)n3)c(C3CC3)c2)CC1 (stereo not shown) [Example 10],0.1 to 1
12,CN1CCC(COc2ccc(Nc3ncc(C(F)(F)F)c(OCCCN4CCCCC4=O)n3)c(C3CC3)c2)CC1 [Example 34],0.1 to 1
13,CN1CCN(c2ccc(Nc3ncc(C(F)(F)F)c(NCCCc4ccccc4C#N)n3)c(C3CC3)c2)CC1 [Example 44],< 0.1
14,CN1CCC2(CCN(c3nc(Nc4ccc(N5CCOCC5)cc4)ncc3C(F)(F)F)CC2)C1 [Example 23],< 0.1
15,CC(=O)Nc1ccc(Nc2cccc(Nc3ncc(C(F)(F)F)c(N4CCN(C)C(=O)C4)n3)c2)cc1 [Example 43],> 1
16,CN1CCN(c2ccc(Nc3ncc(C(F)(F)F)c(COCCN4CCCCC4=O)n3)c(C3CC3)c2)CC1 [Example 42],> 1

# Results, then the compound that gave them:
row,IC50 [µM],Structure (SMILES)
1,0.1 to 1,CN1CCN(c2ccc(Nc3ncc(C(F)(F)F)c(CCNC(=O)C4CCC4)n3)c(C3CC3)c2)CC1 [Example 27]
2,> 1,CN1CCN(c2ccc(Nc3ncc(C(F)(F)F)c(N4CCC(N5CCCCC5=O)CC4)n3)c(C3CC3)c2)CC1 [Example 8]
3,> 1,CN1CCN(c2ccc(Nc3ncc(C(F)(F)F)c(N4CCC5(CC4)CN(C)C5)n3)c(C3CC3)c2)CC1 [Example 36]
4,< 0.1,CN1CCN(c2ccc(Nc3ncc(C(F)(F)F)c(N4CCC5(CN(C)C5)C4)n3)c(C3CC3)c2)CC1 [Example 38]
5,0.1 to 1,CN1CCN(c2ccc(Nc3ncc(C(F)(F)F)c(N4CCC(CN5CCCCC5=O)C4)n3)c(C3CC3)c2)CC1 (stereo not shown) [Example 12]
6,0.1 to 1,CN1CCN(c2ccc(Nc3ncc(C(F)(F)F)c(N4CCN(C(=O)C5CCC5)CC4)n3)c(C3CC3)c2)CC1 [Example 3]
7,< 0.1,CN1CCN(c2ccc(Nc3ncc(C(F)(F)F)c(N4CC5(CCN(C)CC5)C4)n3)c(C3CC3)c2)CC1 [Example 48]
8,< 0.1,CN1CCN(c2ccc(Nc3ncc(C(F)(F)F)c(N4CC5(CCN(C)C5)C4)n3)c(C3CC3)c2)CC1 [Example 25]
9,0.1 to 1,CN1CCN(c2ccc(Nc3ncc(C(F)(F)F)c(N[C@H]4CCN(C)C4=O)n3)c(C3CC3)c2)CC1 [Example 11]
10,< 0.1,CN1CCN(c2ccc(Nc3ncc(C(F)(F)F)c(N4C5CCC4C(=O)N(C)C5)n3)c(C3CC3)c2)CC1 (stereo not shown) [Example 39]
11,0.1 to 1,CN1CCN(c2ccc(Nc3ncc(C(F)(F)F)c(NC(=O)C4CCC4)n3)c(C3CC3)c2)CC1 [Example 7]
12,0.1 to 1,CN1CCN(c2ccc(Nc3ncc(C(F)(F)F)c(N4CCN(C5CCCNC5)C(=O)C4)n3)c(C3CC3)c2)CC1 (stereo not shown) [Example 45]
13,0.1 to 1,Cc1ccnn1C1CCN(c2nc(Nc3ccc(N4CCN(C)CC4)cc3C3CC3)ncc2C(F)(F)F)CC1 [Example 13]
14,0.1 to 1,CN1CCN(c2ccc(Nc3ncc(C(F)(F)F)c(N4CCC(NC(=O)C5CCC5)CC4)n3)c(C3CC3)c2)CC1 [Example 4]
15,0.1 to 1,CN1CCN(c2ccc(Nc3ncc(C(F)(F)F)c(N4CCCN(C(=O)C5CCC5)CC4)n3)c(C3CC3)c2)CC1 [Example 9]
16,0.1 to 1,CN1CCN(c2ccc(Nc3ncc(C(F)(F)F)c(N4CC5(CCCN(C)C5)C4)n3)c(C3CC3)c2)CC1 [Example 50]
17,< 0.1,CN1CCN(c2ccc(Nc3ncc(C(F)(F)F)c(N4CCC5(CCNC5=O)CC4)n3)c(C3CC3)c2)CC1 [Example 35]
18,0.1 to 1,CN1CCN(c2ccc(Nc3ncc(C(F)(F)F)c(OC4CCN(C(=O)C5CCC5)CC4)n3)c(C3CC3)c2)CC1 [Example 18]
19,> 1,CN1CCN(c2ccc(Nc3ncc(C(F)(F)F)c(N4CCC(N5CCCC5=O)CC4)n3)c(C3CC3)c2)CC1 [Example 6]
20,< 0.1,Cc1ccn(C2CCN(c3nc(Nc4ccc(N5CCN(C)CC5)cc4C4CC4)ncc3C(F)(F)F)C2)n1 (stereo not shown) [Example 41]

# Test system: ATG13 phosphorylation level in MIA PaCa-2 cells
# Assay: Inhibition of ATG13 phosphorylation level in MIA PaCa-2 cells (pATG13 ELISA)
# Assay type: cell-based
# Conditions: Homo sapiens, Torin1 100 nM, 24 h incubation, Phospho-Atg13 (ser355)
# Protocol: The inhibitory effect of the compound of the present disclosure on ULK1 was evaluated by testing the inhibitory effect of the compound of the present disclosure on ATG13 phosphorylation level in MIA PaCa-2 cells.
# MIA PaCa-2 cells (ATCC, CRM-CRL-1420) were cultured in a complete medium, namely, a DMEM medium (Gibco, 11965-092) containing 10% fetal bovine serum (Corning, 35-081-CV), 2.5% horse serum (Gibco, 16050-122) and 1% double antibody (Gibco, 15140-122). The experiments were performed according to the requirements of the kit (Cell Signaling Technology, 17208C).
# Cell plating: MIA PaCa-2 at 80% growth confluence were digested, diluted with the complete medium, and added to a 96-well cell culture plate (Costar, 3596) at 20,000 cells per well, with a volume of 90 μL.
# Compound incubation: 5 μL of Torin1 and 5 μL of a serially diluted compound were added to each well so that the highest concentration of the compound in the reaction system was 10 μM. 5-fold serial dilution with 8 concentrations was performed, and the final concentration of Torin1 was 100 nM. The DMSO content in the system was 0.1%. The reaction plate was placed in an incubator at 37° C. in 5% CO2, and was incubated for 24 h. 10 μL of Torin1 was added to the negative control wells (NC) to a final concentration of 100 nM, with a DMSO content of 0.1%.
# Reaction detection: After the incubation was completed, the cell plate was washed with a pre-cooled DPBS (Corning, 21-031-CVC) to wash away the compound and medium. 50 μL of pre-cooled cell lysis solution was added to each well, incubated on ice for 10 min. The cell plate was centrifuged, and the supernatant was transferred to an ELISA reaction plate. Simultaneously, 50 μL of Phospho-Atg13 (ser355) rabbit detection antibody was added, followed by incubation at room temperature under shaking for 60 min. After the incubation was completed, the reaction plate was washed with a washing solution for 4 times. 100 μL of TMB substrate was added for color development reaction, followed by incubation under shaded conditions with shaking for 15 min. Finally, 100 μL of stop solution was added to each well. The reaction was terminated by shaking for 10 s, and the absorbance value at 450 nm and 560 nm were collected within 10 min using Envision (Perkin Elmer, EnVision 2105).
# The inhibition ratio was calculated by subtracting the absorbance value at […] from the absorbance value at 450 nm for each well. The inhibition ratio formula is as follows: inhibition ratio=(sample signal value−negative control signal value)/(positive control signal value -negative control signal value)×100%.
# The dose-effect curve was fitted using the log (inhibitor) vs. response -Variable slope of Graphpad Prism8, thereby affording the IC50 value of each compound for inhibiting ATG13 phosphorylation level.
row,IC50 [µM],Structure (SMILES)
1,0.1 to 1,CN1CCN(c2ccc(Nc3ncc(C(F)(F)F)c(N4CC5(CCN(C)C5)C4)n3)c(C3CC3)c2)CC1 [Example 25]
